Test results: article PMC3687672 (British Journal of Pharmacology, 2013)

What was measured:
[1] = molecular target: T1, large-conductance Ca2+-activated K+ (BKCa) channel (Homo sapiens, UniProt Q12791); assay: whole-cell patch clamp; assay type: cell-based
[2] = molecular target: T1, large-conductance Ca2+-activated K+ (BKCa) channel; assay: single-channel inside-out patch clamp; assay type: cell-based

T1 sequence (Q12791 whole entry): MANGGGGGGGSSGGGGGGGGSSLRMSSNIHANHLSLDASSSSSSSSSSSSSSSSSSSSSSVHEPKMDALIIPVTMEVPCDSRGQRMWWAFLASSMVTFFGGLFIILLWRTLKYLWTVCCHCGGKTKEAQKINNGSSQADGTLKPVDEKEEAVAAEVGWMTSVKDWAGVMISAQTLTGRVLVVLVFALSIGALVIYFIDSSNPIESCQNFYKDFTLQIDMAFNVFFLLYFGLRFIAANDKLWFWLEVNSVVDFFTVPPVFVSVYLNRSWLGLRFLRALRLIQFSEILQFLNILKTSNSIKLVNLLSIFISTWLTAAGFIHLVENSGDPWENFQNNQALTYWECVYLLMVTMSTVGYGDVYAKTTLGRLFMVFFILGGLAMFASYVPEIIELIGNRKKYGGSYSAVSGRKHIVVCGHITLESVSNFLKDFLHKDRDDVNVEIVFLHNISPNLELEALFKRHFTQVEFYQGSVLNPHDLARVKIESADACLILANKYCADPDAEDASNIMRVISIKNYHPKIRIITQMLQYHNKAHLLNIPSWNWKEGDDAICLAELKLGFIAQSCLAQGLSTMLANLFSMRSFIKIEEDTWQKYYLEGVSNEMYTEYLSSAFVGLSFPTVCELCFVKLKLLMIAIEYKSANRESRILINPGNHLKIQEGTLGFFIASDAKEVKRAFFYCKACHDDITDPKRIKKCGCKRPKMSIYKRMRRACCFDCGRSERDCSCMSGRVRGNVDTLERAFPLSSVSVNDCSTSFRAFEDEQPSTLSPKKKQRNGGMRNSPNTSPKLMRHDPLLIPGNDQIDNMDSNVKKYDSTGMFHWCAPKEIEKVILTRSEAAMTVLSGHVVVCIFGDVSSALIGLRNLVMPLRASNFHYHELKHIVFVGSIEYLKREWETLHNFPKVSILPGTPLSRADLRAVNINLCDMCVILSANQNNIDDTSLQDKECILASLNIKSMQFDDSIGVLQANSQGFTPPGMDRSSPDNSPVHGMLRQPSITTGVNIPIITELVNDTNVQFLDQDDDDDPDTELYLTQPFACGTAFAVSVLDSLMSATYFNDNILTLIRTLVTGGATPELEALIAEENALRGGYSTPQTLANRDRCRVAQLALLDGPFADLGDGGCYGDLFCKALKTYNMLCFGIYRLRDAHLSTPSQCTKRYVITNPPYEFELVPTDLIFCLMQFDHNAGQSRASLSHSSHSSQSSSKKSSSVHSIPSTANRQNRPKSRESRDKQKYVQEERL

SMILES	whole-cell patch clamp [1]	single-channel inside-out patch clamp; whole-cell patch clamp with GDPbetaS [2]
CC(C)(O)[C@H]1O[C@H]2CC[C@@]3(C)[C@@](O)(CC[C@H]4Cc5c([nH]c6ccccc56)[C@@]43C)C2=CC1=O [paxilline]	1 µM	
CCCCC/C=C\C/C=C\C/C=C\C/C=C\CCCC(=O)NCC(=O)O [NAGly]		3 µM
